Data as given in US9441208B2, “Methods and compositions for producing vitamin K dependent proteins” (The University of North Carolina at Chapel Hill, priority 2003, dated 2016).

Experiments:
VKOR [1] = molecular target: T1, VKOR (Homo sapiens, UniProt Q9BQB6); experiment: Warfarin sensitivity of VKOR (mGC11276) expressed in Sf9 insect cells; assay type: biochemical
T1 construct: from tissue; host or cells: patients on warfarin (in vivo); genomic DNA from whole blood
Experimental: FIG. 4. VKOR activity was detected when mGC_11276 was expressed in Sf9 insect cells. ˜1×10^6 cells were used in this assay. […] Blank Sf9 cells served as a negative control and A549 cells as a reference.
siRNA transfected A549 cells were trypsinized and washed twice with cold PBS. 1.5×10^7 cells were taken for each VKOR assay. 200 μL buffer D (250 mM Na2HPO4—NaH2PO4, 500 mM KCI, 20% glycerol and 0.75% CHAPS, pH 7.4) was added to the cell pellet, followed by sonication of the cell lysate. For assays of solubilized microsomes, microsomes were prepared from 2×10^9 cells as described (Lin et al. (2002) “The putative vitamin K-dependent gamma-glutamyl carboxylase internal propeptide appears to be the propeptide binding site” J Biol Chem 277:28584-91); 10 to 50 μL of solubilized microsomes were used for each assay. Vitamin K epoxide was added to the concentration indicated in the figure legends and DTT was added to 4 mM to initiate the reaction. […] 500 μL hexane was added and the mixture was vortexed vigorously for 1 minute to extract the vitamin K and KO. After 5 minutes centrifugation, the upper organic layer was transferred to a 5-mL brown vial and dried with N2. 150 μL HPLC buffer, acetonitrile:isopropanol:water (100:7:2), was added to dissolve the vitamin K and KO and the sample was analyzed by HPLC on an A C-18 column (Vydac, cat#218TP54). […]

VKOR [2] = molecular target: T1, VKOR; experiment: Correlation of VKOR gene SNPs with warfarin maintenance dose in patients; assay type: in vivo
Source text: The most prevalent isoform of the VKOR gene is about 4 kb long, has three exons and encodes an enzyme of 163 amino acids with a mass of 18.4 kDa.
Subjects were obtained from the UNC Coagulation Clinic in the Ambulatory Care Center. Informed consent was obtained by a trained genetic counselor. Subjects not fluent in English were excluded because of the lack of translators and the requirement for consent.
Genomic DNAs were extracted from the whole blood of subjects using QIAamp DNA Blood Mini Kit (QIAGEN cat#51104). The DNA concentration was adjusted to 10 ng/μL.
Approximately 10 ng of DNA was used for polymerase chain reaction (PCR) assays. The primers used to amplify the VKOR gene were: Exon 1-5′ […] (SEQ ID NO:29) and Exon 1-3′ […] (SEQ ID NO:30) for the 5′-UTR and Exon 1 region; Exon 2-5′ […] (SEQ ID NO:31) and Exon 2-3′ […] (SEQ ID NO:32) for the Exon 2 region; and Exon 3-5′ […] (SEQ ID NO:33) and Exon 3-3′ […] (SEQ ID NO:34) for the Exon3 and 3′-UTR region. Automated high throughput capillary electrophoresis DNA sequencing was used for detecting SNPs in the VKOR gene.
The assay reagents for SNP genotyping were from the Assay-by-Design™ service (Applied Biosystems, cat#4332072). The primers and probes (FAM™ and VIC™ dye-labeled) were designed using Primer Express software and were synthesized in an Applied Biosystems synthesizer. The primer pairs for each SNP are located at the upstream/downstream position of the SNP site and can generate less than 100 bp length of a DNA fragment in the PCR reaction. The FAM™ and VIC™ dye-labeled probes were designed to cover the SNP sites with a length of 15-16 nt.
The 2× TaqMan™ Universal PCR Master Mix, No AmpErase UNG (Applied Biosystems, cat#4324018) was used in the PCR reactions. Forty cycles of real-time PCR were performed in an Opticon II (MJ Research) machine. There was a 10 minute 95° C. preheat followed by 92° C. for 15 sec, 60° C. for 1 min. and then a plate reading. The results were read according to the signal value of FAM and VIC dye.
The difference of average dose between different genotypes was compared by analysis of variance (ANOVA) using SAS version 8.0 (SAS, Inc., Cary, N.C.). A two-sided p value less than 0.05 was considered significant.
Each marker was first analyzed independently.
The three VKOR SNPs are located within 2 kb distance of one another and are expected to be closely linked.

T1 sequence (Q9BQB6 whole entry): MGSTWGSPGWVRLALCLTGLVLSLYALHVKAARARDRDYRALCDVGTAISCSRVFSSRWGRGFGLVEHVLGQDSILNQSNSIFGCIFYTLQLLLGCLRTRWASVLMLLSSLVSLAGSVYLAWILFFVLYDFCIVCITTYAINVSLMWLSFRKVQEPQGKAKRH

CC(=O)CC(c1ccccc1)c1c(O)c2ccccc2oc1=O (stereo not shown) [warfarin]
warfarin sensitivity of VKOR activity (VKOR [1]; Sf9 cells transfected with mGC11276 cDNA): warfarin sensitive | warfarin sensitivity of VKOR activity (VKOR [1]; microsomes from Sf9 cells expressing VKOR, 60 μM KO, 30° C., 15 minutes): warfarin-sensitive | average warfarin dose (VKOR [2]; patients heterozygous for vk2581, n=17): 35.19±3.73 mg per week | average warfarin dose (VKOR [2]; patients heterozygous for vk3294, n=25): 41.68±4.92 mg per week | average warfarin dose (VKOR [2]; patients heterozygous for vk4769, n=19): 44.48±4.80 mg per week | average warfarin dose (VKOR [2]; patients homozygous for vk2581, n=15): 31.14±6.2 mg per week | average warfarin dose (VKOR [2]; patients homozygous for vk3294, n=22): 47.73±2.75 mg per week | average warfarin dose (VKOR [2]; patients homozygous for vk4769, n=12): 47.56±3.86 mg per week | warfarin dosage (VKOR [2]; patients with haplotype aaBBCC): 25.29±3.05 | average warfarin dose (VKOR [2]; patients with vk2581 wild type allele, n=26): 50.19±3.20 mg per week | average warfarin dose (VKOR [2]; patients with vk4769 SNP wild type, n=27): 35.35±4.01 mg per week | average warfarin dose (VKOR [2]; patients with wild-type vk3294 allele, n=11): 25.29±3.05 mg per week | warfarin dosage (VKOR [2]; subjects with haplotype AAbbcc, n=7): 48.98±3.93
